Measurements taken from paper PMC4639751, “Development of 1-N-^11C-Methyl-L- and -D-Tryptophan for pharmacokinetic imaging of the immune checkpoint inhibitor 1-Methyl-Tryptophan” (Scientific Reports, 2015).

Key:
[1] = parameters: method as in PMID 17234791; conditions: compared with the other isomer; cited from earlier work
[2] = Ex vivo biodistribution studies; conditions: SD rats, mean ± SEM, n = 4
Description: Major organs and tissues (blood, heart, lung, liver, pancreas, spleen, kidney, intestine, muscle, and brain), were promptly excised, harvested, and weighed. Radioactivity was counted using a γ-counter and expressed as a percentage of the injected dose per gram of wet tissue (%ID/g). All radioactivity measurements were corrected for decay.

[3] = PET, rats, 60 min after injection
Protocol: Emission scans were acquired in three-dimensional list mode with an energy window of 350–650 keV under isoflurane anesthesia, from 0 to 60 min after radioprobe administration. All list-mode acquisition data were sorted into three-dimensional sinograms, which were then Fourier-rebinned into two-dimensional sonograms (frames × min: 4 × 1, 8 × 2, 8 × 5), and corrections for scanner dead time, randoms, and decay of the injected radioprobe. Dynamic images were reconstructed with filtered back-projection using a Hanning filter and a Nyquist cut-off of 0.5 cycles/pixel. Immediately after completion of PET scans, contrast-enhanced CT scans were performed in the rats by using the small-animal CT system (R_mCT2; Rigaku, Tokyo) after injection of 1 mL of non-ionic contrast medium (Iopamiron 370, Bayer, Osaka). The scan conditions included radiation parameters of 200 μA and 90 kV, FOV of 60 mm, and acquisition time of 34 s. CT images were collected, reconstructed, and observed using I-View-R software (Rigaku, The Woodlands, TX). Averaged CT attenuation images and dynamic PET images were reconstructed and fused using the Siemens Inveon Research Workplace (IRW) 4.0 software.
Regions of interest (ROI) in major organs and tissues were drawn in the PET/CT fusion images by manual outlining the organs and tissues in the CT images throughout the image slices by using IRW 4.0 software. The average radioactivity concentration was obtained from mean pixel values in the ROI volume. Regional uptake of radioactivity was decay-corrected to the injection time and expressed as the standardized uptake value (SUV), normalized for injected radioactivity and body weight. SUV was calculated as SUV = (radioactivity per cubic centimeter tissue/injected radioactivity) × body weight in grams. TACs of the radioprobes in individual organ and tissue were determined. Values of area under time-activity curves (AUC2–60 min, SUV × min) were calculated from 2 to 60 min post-injection to minimize the early perfusion effects.

[4] = In vitro stability assay in rat plasma; format: in vitro ADME; conditions: 37 °C, 90 min incubation, HPLC analysis
Protocol: To determine the in vitro property of the two newly-developed radioprobes, we performed plasma stability studies by HPLC analysis at 37 °C for 90 min. […] More than 95% of ^11C-L-1Mtrp and ^11C-D-1Mtrp remained intact and no detectable metabolites were found at least 90 min after plasma incubation in vitro.
^11C-L-1MTrp and ^11C-D-1MTrp (70–74 MBq, 0.4−0.6 nmol) was dissolved in 2 mL of freshly isolated rat plasma and incubated at 37 °C for 90 min. After 0, 30, 60 and 90 min, an aliquot of 300 μL incubated mixture was taken, proteins in plasma were precipitated with equal volumes of 1 M HClO4 solution, followed by centrifugation at 15000 rpm for 2 min at 4 °C. The supernatant was collected and analyzed by HPLC (Capcell Pack UG80 column, 4.6 mm i.d. × 250 mm) with […] phosphate buffer/CH3CN (8.5/1.5, v/v) at a flow rate of 1 mL/min.

[5] = Ex vivo metabolite studies; format: in vivo; conditions: SD rats; for Ex vivo metabolite analysis, % of tailored L- and D-1MTrp entity in Brain / Ex vivo metabolite analysis, % of tailored L- and D-1MTrp entity in Pancreas / Ex vivo metabolite analysis, % of tailored L- and D-1MTrp entity in Plasma: HPLC, mean ± SEM, n = 4
Protocol: To validate the derivation of radioactivity into the relevant organs and tissues, we assessed the metabolites of both radiolabelled isomers in the blood, brain, and pancreas of rats. […] Few radioactive metabolites were detected in these three tissues at 15 and 60 min after ^11C-L-1MTrp and ^11C-D-1MTrp injection.
SD rats were injected with ^11C-L-1MTrp or ^11C-D-1MTrp (70–74 MBq, 0.4–0.6 nmol) via a lateral tail vein. The animals were sacrificed by cervical dislocation at 15 and 60 min after the injection. Blood was collected and centrifuged at 15000 rpm for 2 min at 4 °C to separate the plasma. Brain and pancreas were rapidly removed, then homogenized in equal volumes of 1 M HClO4 solution with a Silent Crusher S homogenizer (Heidolph Instruments). Plasma and homogenates of brain and pancreas from rats were deproteinized and then analyzed by HPLC as described in the stability assay in vitro.

In the case of `Cn1cc(C[C@@H](N)C(=O)O)c2ccccc21` [D-1MTrp, 1-Methyl-D-tryptophan, reference compound], the “Antitumor activity in in vivo studies” value [1] is listed as “superior antitumor activity”, the “Biodistribution, radioactivity in Kidney” value ([2]; 60 min after injection) is listed as 1.16 %ID/g tissue and the “SUV in the kidney” value ([3]; mean ± SEM, four rats) is listed as 1.79.
In the case of `[11CH3]n1cc(C[C@H](N)C(=O)O)c2ccccc21` [^11C-L-1MTrp, 1-N-^11C-methyl-L-tryptophan], the “Biodistribution, radioactivity in Blood” value ([2]; 1 min after injection) was 1.34 ± 0.03 %ID/g tissue, the “Biodistribution, radioactivity in Brain” value ([2]; 1 min after injection) was 0.14 ± 0.00 %ID/g tissue and the “Biodistribution, radioactivity in Heart” value ([2]; 1 min after injection) was 1.13 ± 0.01 %ID/g tissue. The “Biodistribution, radioactivity in Intestine” value (shortened to “Biodistribution … in Intestine”) ([2]; 1 min after injection) was 1.27 ± 0.05 %ID/g tissue, the “Biodistribution, radioactivity in Kidney” value ([2]; 1 min after injection) was 2.60 ± 0.02 %ID/g tissue and the “Biodistribution, radioactivity in Liver” value ([2]; 1 min after injection) was 1.51 ± 0.03 %ID/g tissue. For the same compound, the “Biodistribution, radioactivity in Lung” value ([2]; 1 min after injection) was 0.98 ± 0.02 %ID/g tissue, the “Biodistribution, radioactivity in Muscle” value ([2]; 1 min after injection) was 0.18 ± 0.02 %ID/g tissue and the “Biodistribution, radioactivity in Pancreas” value (from here on “Biodistribution … in Pancreas”) ([2]; 1 min after injection) was 2.95 ± 0.23 %ID/g tissue. The “Biodistribution, radioactivity in Spleen” value ([2]; 1 min after injection) was 0.98 ± 0.05 %ID/g tissue, the “Biodistribution, radioactivity in Blood” value ([2]; 5 min after injection) was 0.65 ± 0.01 %ID/g tissue and the “Biodistribution, radioactivity in Brain” value ([2]; 5 min after injection) was 0.20 ± 0.01 %ID/g tissue. For the same compound, the “Biodistribution, radioactivity in Heart” value ([2]; 5 min after injection) was 0.64 ± 0.01 %ID/g tissue, the “Biodistribution … in Intestine” value ([2]; 5 min after injection) was 0.68 ± 0.01 %ID/g tissue and the “Biodistribution, radioactivity in Kidney” value ([2]; 5 min after injection) was 1.64 ± 0.03 %ID/g tissue. For the same compound, the “Biodistribution, radioactivity in Liver” value ([2]; 5 min after injection) was 0.73 ± 0.01 %ID/g tissue, the “Biodistribution, radioactivity in Lung” value ([2]; 5 min after injection) was 0.62 ± 0.01 %ID/g tissue and the “Biodistribution, radioactivity in Muscle” value ([2]; 5 min after injection) was 0.46 ± 0.01 %ID/g tissue. The “Biodistribution, radioactivity in Spleen” value ([2]; 5 min after injection) was 0.61 ± 0.00 %ID/g tissue, the “Biodistribution, radioactivity in Blood” value ([2]; 15 min after injection) was 0.54 ± 0.02 %ID/g tissue and the “Biodistribution, radioactivity in Brain” value ([2]; 15 min after injection) was 0.27 ± 0.02 %ID/g tissue. For the same compound, the “Biodistribution, radioactivity in Heart” value ([2]; 15 min after injection) was 0.54 ± 0.02 %ID/g tissue, the “Biodistribution … in Intestine” value ([2]; 15 min after injection) was 0.53 ± 0.02 %ID/g tissue and the “Biodistribution, radioactivity in Kidney” value ([2]; 15 min after injection) was 1.11 ± 0.06 %ID/g tissue. The “Biodistribution, radioactivity in Liver” value ([2]; 15 min after injection) was 0.61 ± 0.03 %ID/g tissue, the “Biodistribution, radioactivity in Lung” value ([2]; 15 min after injection) was 0.50 ± 0.02 %ID/g tissue and the “Biodistribution, radioactivity in Muscle” value ([2]; 15 min after injection) was 0.46 ± 0.02 %ID/g tissue. The “Biodistribution … in Pancreas” value ([2]; 15 min after injection) was 2.65 ± 0.16 %ID/g tissue, the “Biodistribution, radioactivity in Spleen” value ([2]; 15 min after injection) was 0.55 ± 0.02 %ID/g tissue and the “Biodistribution, radioactivity in Blood” value ([2]; 30 min after injection) was 0.50 ± 0.01 %ID/g tissue. For the same compound, the “Biodistribution, radioactivity in Brain” value ([2]; 30 min after injection) was 0.30 ± 0.02 %ID/g tissue, the “Biodistribution, radioactivity in Heart” value ([2]; 30 min after injection) was 0.49 ± 0.01 %ID/g tissue and the “Biodistribution … in Intestine” value ([2]; 30 min after injection) was 0.51 ± 0.00 %ID/g tissue. The “Biodistribution, radioactivity in Kidney” value ([2]; 30 min after injection) was 0.86 ± 0.03 %ID/g tissue, the “Biodistribution, radioactivity in Liver” value ([2]; 30 min after injection) was 0.55 ± 0.01 %ID/g tissue and the “Biodistribution, radioactivity in Lung” value ([2]; 30 min after injection) was 0.45 ± 0.01 %ID/g tissue. The “Biodistribution, radioactivity in Muscle” value ([2]; 30 min after injection) was 0.45 ± 0.01 %ID/g tissue, the “Biodistribution … in Pancreas” value ([2]; 30 min after injection) was 2.70 ± 0.17 %ID/g tissue and the “Biodistribution, radioactivity in Spleen” value ([2]; 30 min after injection) was 0.51 ± 0.01 %ID/g tissue. The “Biodistribution, radioactivity in Blood” value ([2]; 60 min after injection) was 0.50 ± 0.02 %ID/g tissue, the “Biodistribution, radioactivity in Brain” value ([2]; 60 min after injection) was 0.31 ± 0.01 %ID/g tissue and the “Biodistribution, radioactivity in Heart” value ([2]; 60 min after injection) was 0.47 ± 0.02 %ID/g tissue. For the same compound, the “Biodistribution … in Intestine” value ([2]; 60 min after injection) was 0.46 ± 0.02 %ID/g tissue, the “Biodistribution, radioactivity in Kidney” value ([2]; 60 min after injection) was 0.74 ± 0.04 %ID/g tissue and the “Biodistribution, radioactivity in Liver” value ([2]; 60 min after injection) was 0.54 ± 0.02 %ID/g tissue. The “Biodistribution, radioactivity in Lung” value ([2]; 60 min after injection) was 0.43 ± 0.02 %ID/g tissue, the “Biodistribution, radioactivity in Muscle” value ([2]; 60 min after injection) was 0.45 ± 0.02 %ID/g tissue and the “Biodistribution … in Pancreas” value ([2]; 60 min after injection) was 2.27 ± 0.05 %ID/g tissue. The “Biodistribution, radioactivity in Spleen” value ([2]; 60 min after injection) was 0.48 ± 0.01 %ID/g tissue, the “Fraction remaining intact in rat plasma” value [4] was “More than 95%” and the “Radioactivity in the brain, pancreas, and blood associated with L- and D-1MTrp” value ([5]; 15 and 60 min after injection) was “more than 94%”. For the same compound, the “Ex vivo metabolite analysis, % of tailored L- and D-1MTrp entity in Brain” value ([5]; 15 min after injection) was 98.38 ± 0.34%, the “Ex vivo metabolite analysis, % of tailored L- and D-1MTrp entity in Pancreas” value ([5]; 15 min after injection) was 94.73 ± 1.64% and the “Ex vivo metabolite analysis, % of tailored L- and D-1MTrp entity in Plasma” value ([5]; 15 min after injection) was 97.67 ± 0.18%. The “Ex vivo metabolite analysis, % of tailored L- and D-1MTrp entity in Brain” value ([5]; 60 min after injection) was 98.93 ± 0.51%, the “Ex vivo metabolite analysis, % of tailored L- and D-1MTrp entity in Pancreas” value ([5]; 60 min after injection) was 95.88 ± 0.64% and the “Ex vivo metabolite analysis, % of tailored L- and D-1MTrp entity in Plasma” value ([5]; 60 min after injection) was 98.44 ± 0.13%. For the same compound, the “SUV in the kidney” value ([3]; mean ± SEM, four rats) was 0.94 ± 0.03, the “SUV in the pancreas” value ([3]; mean ± SEM, four rats) was 2.28 ± 0.28 and the “SUV in the liver, spleen, heart, blood, muscle, lung, brain and intestine” value ([3]; span over these organs) was 0.43 ~ 0.70.
